The record followed here is patent US8450053B2, “ZAP-70 as predictor and modulator of effector function of T cells” (University of Maryland, Baltimore, priority 2007, dated 2013).

Format in all cases: cell-based, mouse
One data set has as its system ZAP-70. The data set can be described thus: siRNA-mediated knockdown of ZAP-70 in OVA-specific memory CD4 T cells. As for the experimental part:
Cy3-labeled ZAP-70 specific siRNA Sense (5′→3′)/Cy3/GGCGGAUGGACUAAUUUACtt (SEQ ID NO: 10); Antisense (5′→3′) GUAAAUUAGUCCAUCCGCCtt (SEQ ID NO:11) or control GAPDH siRNA obtained from Ambion (Austin, Tex.) was delivered at a final concentration of 5 μM into 1.0×10^6 purified resting memory OVA-specific CD4 T cells using the mouse T cell nucleofector kit (Amaxa Inc., Gaithersburg, Md.) according to the manufacturers instructions and similar to the approach previously employed for siRNA transfections in mouse T cells (Sabbagh et al., 2006, Proc. Natl. Acad. Sci. USA 103:18703-18708). Following nucleofection, cell suspensions were cultured in media in 24 well plates with APC (2×10^6/well) and OVA-peptide (800 ng/ml), followed by incubation at 37° C. for 18 hrs. After 18 hrs, Golgistop (BD Pharmingen, USA) (0.66 μl/ml of culture) was added, cells were incubated for an additional 6 hrs, and subsequently staining for surface expression of CD4, KJ1-26 and CD25, and intracellular expression of ZAP-70 and IFN-γ as above.

The test system of another data set is naive CD4 T cells. The data set can be described thus: Inhibitor assay: OVA-specific naive CD4 T cells stimulated with OVA/APC, flow cytometry. The settings on record: cycloheximide 50 μg/ml. As for the experimental part: (§1) Intracellular cytokine staining (ICS) analysis of signaling intermediates and cytokines was performed as previously described (Bingaman et al., 2005, supra; Ahmadzadeh and Farber, 2002, supra). Briefly, naive or memory CD4 T cells were cultured with APC and 800 ng/ml OVA peptide for time points of 0-48 hrs, and monensin (Golgistop™, BD Pharmingen) was added 6 hrs prior to harvesting. Cells were stained with antibodies for surface markers CD4, CD25, CD44, KJ1-26, fixed (Cytofix™ buffer, BD Pharmingen), permeabilized, and stained intracellularly with fluorochrome-conjugated antibodies to cytokines, signaling intermediates, and analyzed by flow cytometry.
(§2) Six-color flow cytometry was performed on BD LSR II flow cytometer (BD Biosciences) using FITC, PE, PERCP and PE-Cy7, allophycocyanin-Cy7, and allophycocyanin as fluorochromes (BD Biosciences, e-biosciences, Invitrogen/caltag). CD4 T cells stained with single color fluorochromes were used for compensation, background values were established with isotype controls, and data were analyzed using BD FACSDiva™ software (BD Biosciences). Fluorochrome-conjugated antibodies directed against CD4 (clone GK1.5), CD25 (PC61), CD69 (H1.2F3), CD62L (MEL-14), CD44 (IM7), CD3ε (145-2C11), IFN-γ (XMG1.2), phospho-ZAP-70 (17-P), phospho-PLC-γ (27/PLC), and phospho-Stat1 (clone 4a) were all purchased from BD-Pharmingen (San Diego, Calif.). PE- and APC-conjugated KJ1-26 specific for the DO11.10 TCR clonotype were purchased from CALTAG Laboratories (Burlingame, Calif.). PE- and FITC-conjugated ZAP-70 (1E7.2) was obtained from Invitrogen (Carlsbad, Calif.), and FITC-conjugated phospho-tyrosine (PT-66) from Sigma (St. Louis, Mo.), and phospho-p38 (28B10) and phospho-erk1/2 (E10) were purchased from Cell signaling technology, Inc. (Danvers, Mass.). For most analyses, a given marker was analyzed using several different fluorochromes to eliminate errors based on compensation.
(§3) Naive or memory CD4 T cells (1×10^6) were cultured with APC (3×10^6) in total volume of 1 ml of Clicks medium containing 800 ng/ml OVA peptide for time points of 0-24 hrs along with inhibitors cycloheximide (Sigma, 50 μg/ml) or piceatannol (Calbiochem, 12 μM of 3,4,3′,5′-tetrahydroxy-trans-stilbene). Solvent alone served as a vehicle control.
On the technique in general: Flow cytometry measures light scatter and fluorescence of single cells or particles in a stream.

The subject of a further data set is memory CD4 T cells. The data set can be described thus: Inhibitor assay: OVA-specific memory CD4 T cells stimulated with OVA/APC, flow cytometry and intracellular cytokine staining. As for the experimental part: as §1, §2, §3
In data set [1] the test system is naive and memory CD4 T cells. The data set can be described thus: Viability of naive and memory CD4 T cells cultured with cycloheximide. The settings on record: after 24 hrs in cycloheximide, average. As for the experimental part: as §3
The mark [2] stands for this setting: naive CD4 T cells, +/-antigen, 6 hrs.
Where [3] appears, read: naive T cells, antigenic stimulation 24 hrs.
Where [4] appears, read: antigen-stimulated memory CD4 T cells, 24 hrs, cycloheximide 50 μg/ml.
[5] abbreviates: memory CD4 T cells, +/-antigen, 6 hrs, cycloheximide 50 μg/ml.
Where [6] appears, read: memory CD4 T cells, OVA/APC 6 hrs, piceatannol 12 μM.

Entries after “also recorded” stand apart in the source; their conditions may differ.

As for “ZAP-70 specific siRNA: Cy3-labeled ZAP-70 specific siRNA, sense GGCGGAUGGACUAAUUUACtt (SEQ ID NO: 10), antisense GUAAAUUAGUCCAUCCGCCtt (SEQ ID NO:11) (sense GGCGGAUGGACUAAUUUACTT; antisense GUAAAUUAGUCCAUCCGCCTT; Cy3 label, further chemistry not given here)”, the “early IFN-γ production” value with ZAP-70 (memory CD4 T cells, ZAP-70 downmodulated using siRNA) was “inhibited”. In addition, the “reduction in the proportion of memory T cells producing IFN-γ” value in the data set on ZAP-70 (siRNA 5 μM, OVA/APC 24 hrs, vs siRNA- and GAPDH siRNA transfectants) stood at 50%. For the same compound, the “ZAP-70 expression (MFI)” value with ZAP-70 (silenced (siRNA+) vs unsilenced (siRNA-) memory CD4 T cells, siRNA 5 μM, OVA/APC 24 hrs) is on record as “reduction in ZAP-70 expression”.

For the compound `C[C@@H]1C[C@@H]([C@H](O)CC2CC(=O)NC(=O)C2)C(=O)[C@@H](C)C1` [cycloheximide], the “increases in total intracellular p-Tyr levels” value in the data set on naive CD4 T cells (activated naive CD4 T cells, 24 hrs) is given as “significantly inhibited”. In addition, in the data set with naive CD4 T cells (setting [2]), the intracellular tyrosine phosphorylation entry is listed as “did not affect” and the “resting state level of ZAP-70” value is given as “did not affect”. In addition, in the data set on naive CD4 T cells (setting [3]), the “up-regulation of CD25 expression” value is reported as “completely inhibited” and the “up-regulation of ZAP-70 expression” value is on record as “completely inhibited”. In addition, in the data set on memory CD4 T cells (setting [4]), the CD25 up-regulation entry was “inhibited” and the “memory CD4 T cells maintaining high level of ZAP-70 expression” value was over 50%. For the same compound, in the data set with memory CD4 T cells (setting [5]), the intracellular tyrosine phosphorylation entry is “did not affect” and the “resting state level of ZAP-70” value is on record as “did not affect”. In the data set with memory CD4 T cells (memory T cells, 24 hrs, cycloheximide 50 μg/ml), the p-Tyr levels result is reported as “did not affect”. In data set [1], this compound came in with a Viability of 70%.

As for `Oc1cc(O)cc(/C=C/c2ccc(O)c(O)c2)c1` [piceatannol, 3,4,3′,5′-tetrahydroxy-trans-stilbene], in the data set with memory CD4 T cells (antigen-stimulated memory CD4 T cells, +/-OVA/APC, six hrs), the “ZAP-70 expression, dose response” value is listed as “reduced ZAP-70 expression in a dose-dependent fashion”. In addition, in the data set with memory CD4 T cells (setting [6]), the ZAP-70 expression result is “specifically reduced”, the “basal level of CD25” value was “without affecting”, the “rapid IFN-γ production” value is recorded as “striking inhibition; also recorded: completely blocked” and the “total p-Tyr content” value was “without affecting”.
